Assays:
[1] = Log P octanol/water, shake flask method with ICP-MS; format: physicochemical; conditions: n-octanol / 0.9% NaCl water, Pt by ICP-MS
Procedure: Partition coefficients (logP values) for octanol/water partition were determined in order to examine whether a correlation exists between lipophilicity and accumulation into cells. The log P values obtained (Table 3) give the trend in lipophilicity as mono indole acid complex < succinate complex < acetate complex < bis indole acid complex < benzoate complex for both the IAA and the IPA series.
The logP values of the Pt(IV) compounds were determined using the shake flask method. The respective Pt(IV) complex was dissolved in 0.9% NaCl (w/v) ultrapure water (presaturated with n-octanol). The solutions were sonicated and filtered to remove undissolved Pt(IV) compounds. The initial Pt concentrations were determined by ICP-MS. Subsequently, the Pt(IV) solutions were added to an equal volume of n-octanol (presaturated with 0.9% NaCl (w/v) ultrapure water). The heterogeneous mixtures were shaken vigorously for 30 min before centrifuging at 4000 rpm for 30 min to achieve phase separation. The final Pt concentration in the aqueous phase was determined again by ICP-MS. The logarithm of the ratio of Pt concentrations in the organic and aqueous phases was calculated to determine the logP values. All experiments were done in duplicate.

[2] = tested on: BxPC3 pancreatic carcinoma cells; test: MTT cytotoxicity test, BxPC3; format: cell-based, human; conditions: BxPC3, 72 h, MTT, ± S.D.
Procedure: (§1) The cytotoxic activity of the complexes and of the uncoordinated ligands was evaluated by the MTT test on a panel of human tumor cell lines containing examples of pancreatic (BxPC3), colorectal (HCT-15), breast (MCF-7), cervical (A431), and lung (A549) cancers as well as of melanoma (A375). For comparison purposes, the cytotoxicity of cisplatin was evaluated under the same experimental conditions.
(§2) Cisplatin was dissolved in 0.9% NaCl solution.
(§3) Human breast (MCF-7), colon (HCT-15), lung (A549) and pancreatic (BxPC3) carcinoma cell lines together with melanoma (A375) cells were obtained from American Type Culture Collection (ATCC, Rockville, MD). The human ovarian cancer cell line 2008 and its cisplatin resistant variant, C13*, were kindly provided by Prof. G. Marverti (Department of Biomedical Science of Modena University, Italy). Human cervical carcinoma (A431) cells were kindly provided by Prof. F. Zunino (Division of Experimental Oncology B, Istituto Nazionale dei Tumori, Milan, Italy). Cell lines were maintained in the logarithmic phase at 37 °C in a 5% carbon dioxide atmosphere using the following culture media containing 10% fetal calf serum (Euroclone, Milan, Italy), antibiotics (50 units/mL penicillin and 50 μg/mL streptomycin) and 2 mM L-glutamine: (i) RPMI-1640 medium (Euroclone) for 2008, C13*, MCF-7, HCT-15, A431 and BxPC3 cells, (ii) F-12 HAM’S (Sigma Chemical Co.) for A549 cells, iii) DMEM (Sigma Chemical Co.) for A375 cells.
(§4) The growth inhibitory effect toward tumor cells was evaluated by means of the MTT assay. Briefly, (3–8) × 10^3 cells/well, dependent upon the growth characteristics of the cell line, were seeded in 96-well microplates in growth medium (100 μL). After 24 h, the medium was removed and replaced with fresh medium containing the compound to be studied at the appropriate concentration. Triplicate cultures were established for each treatment. After 24, 48, or 72 h, each well was treated with 10 μL of a 5 mg/mL MTT saline solution and, after 5 h of incubation, 100 μL of a sodium dodecylsulfate (SDS) solution in 0.01 M HCl was added. After an overnight incubation, cell growth inhibition was detected by measuring the absorbance of each well at 570 nm using a Bio-Rad 680 microplate reader. The mean absorbance for each drug dose was expressed as a percentage of the control, untreated well absorbance and plotted vs drug concentration. The IC50 values, the drug concentrations that decrease the mean absorbance at 570 nm to 50% of that of untreated control wells, were calculated from the dose–response curves with the four-parameter logistic model (4PL). The final value is the mean ± S.D. of at least three independent experiments performed in triplicate.

[3] = tested on: MCF-7 breast carcinoma cells; test: MTT cytotoxicity test, MCF-7; format: cell-based, human; conditions: ± S.D.
Procedure: as §1, §2, §3, §4

[4] = tested on: A431 cervical carcinoma cells; test: MTT cytotoxicity test, A431; format: cell-based, human; conditions: ± S.D.
Procedure: as §1, §2, §3, §4

[5] = tested on: A375 melanoma cells; test: MTT cytotoxicity test, A375; format: cell-based, human; conditions: ± S.D.
Procedure: as §1, §2, §3, §4

[6] = tested on: 2008 ovarian cancer cells; test: MTT cytotoxicity test, cisplatin-sensitive 2008; format: cell-based, human; conditions: 2008 cisplatin-sensitive, 72 h, ± S.D.
Procedure: The cytotoxic properties of the complexes were also evaluated in a pair of tumor cell lines suitably selected for their sensitivity and resistance to cisplatin (adenocarcinoma cells 2008/C13^*). Cross-resistance profiles were evaluated by means of the resistance factor (RF), defined as the ratio between IC50 values calculated for the resistant cells and those obtained with the sensitive ones (Table 2). The phenomenon of cisplatin resistance is multifactorial in nature. Nevertheless, the main molecular mechanisms involved in drug resistance in C13* cancer cells have largely been identified. Indeed, in this cell line resistance is correlated to high cellular glutathione and thioredoxin reductase levels, reduced cellular drug uptake and enhanced repair of DNA damage. […] The RF values calculated for all derivatives were six- to nine-fold lower than that of cisplatin, clearly indicating the absence of cross-resistance.
as §2
Triplicate cultures were established for each treatment.

[7] = tested on: HCT-15 colon carcinoma cells; test: MTT cytotoxicity test, HCT-15; format: cell-based, human; conditions: HCT-15, 72 h, MTT, ± S.D.
Procedure: as §1, §2, §3, §4

[8] = tested on: C13* cisplatin-resistant ovarian cancer cells; test: MTT cytotoxicity test, cisplatin-resistant C13*; format: cell-based, human; conditions: for IC50: C13* cisplatin-resistant, 72 h, MTT, ± S.D.; for RF (resistance factor): IC50 resistant (C13*) / parent line (2008)
Procedure: The cytotoxic properties of the complexes were also evaluated in a pair of tumor cell lines suitably selected for their sensitivity and resistance to cisplatin (adenocarcinoma cells 2008/C13^*). Cross-resistance profiles were evaluated by means of the resistance factor (RF), defined as the ratio between IC50 values calculated for the resistant cells and those obtained with the sensitive ones (Table 2). The phenomenon of cisplatin resistance is multifactorial in nature.
as §2, §3, §4

[9] = tested on: A375 cells; test: ROS production (CM-H2DCFDA probe); format: cell-based, human; conditions: A375, 12.5 μM, compared with antimycin positive control
Procedure: ROS are products of normal cell metabolism but their levels can be increased upon exposure to toxic agents or interference with the cellular redox network. […] Consequently, cellular ROS levels upon treatment with equal doses (12.5 μM) of the different platinum complexes were monitored in A375 cancer cells by using the peroxide-sensitive fluorescent probe CM-H2DCFDA (5-(and-6)-chloromethyl-2′,7′-dichlorodihydrofluorescein diacetate, acetyl ester). Antimycin, a classical inhibitor of the mitochondrial respiratory chain at the level of complex III, was used as a positive control.
Figure 8 ROS production in A375 cells. Cells were preincubated in PBS/10 mM glucose medium for 20 min at 37 °C in the presence of 10 μM CM-DCFDA and then treated with equimolar doses (12.5 μM) of indole propionic acid Pt(IV) derivatives (panel A) or indole acetic acid Pt(IV) derivatives (panel B). The fluorescence of DCF was measured.
The production of ROS was measured in A375 cells (10^4 per well) grown for 24 h in 96-well plates in DMEM medium without phenol red (Sigma Chemical Co.). Cells were then washed with PBS and loaded with 10 μM 5-(and-6)-chloromethyl-2′,7′-dichlorodihydrofluorescein diacetate, acetyl ester (CM–H2DCFDA) (Molecular Probes-Invitrogen) for 25 min in the dark. Afterwards, cells were washed with PBS and incubated with increasing concentrations of the tested complexes. The fluorescence increase was estimated with a plate reader (Fluoroskan Ascent FL, Labsystem, Finland) at 485 (excitation) and 527 nm (emission). Antimycin (3 μM, Sigma Chemical Co.), a potent inhibitor of Complex III in the electron transport chain, was used as positive control.

[10] = tested on: A549 lung carcinoma cells; test: cells; conditions: A549, 72 h
Procedure: as §1, §2, §3, §4

[11] = tested on: panel of human tumor cell lines (BxPC3, HCT-15, MCF-7, A431, A549, A375); test: MTT cytotoxicity, mean over panel of human tumor cell lines; format: cell-based; conditions: for IC50: mean over the six cell lines of Table 1, 72 h
Procedure: as §1, §4

[12] = tested on: A375 melanoma cells; test: Cellular accumulation of Pt (GF-AAS); format: cell-based, human
[13] = tested on: nuclear DNA of A375 cells; test: Nuclear DNA platination (GF-AAS); format: cell-based, human; conditions: A375, 5 μM, 24 h
Procedure: It is well known that the main cellular target of platinum complexes is the DNA, and platination of nuclear DNA is a critical step in triggering the death of cancer cells by platinum-based drugs. On this basis, the amount of platinum bound to nuclear DNA was also assessed in A375 cells treated with the tested Pt(IV) complexes. Cells were treated for 24 h with 5 μM of the tested complexes, the nuclear DNA was isolated and the amount of Pt in each sample was determined by means of GF-AAS analysis. The results expressed as pg Pt/ng DNA are depicted in Fig. 7. […] In particular, 1P led to a roughly 60-fold higher DNA platination level with respect to cisplatin.
A375 cells (3 × 10^6) were seeded in 10 cm Petri dishes in 10 mL of culture medium. Subsequently, cells were treated with the tested complexes (5 μM) for 24 h. The DNA was extracted and purified by a commercial spin column quantification kit (Qiagen DNeasy Blood and Tissue Kit). Only highly purified samples (A260/A230 ≅ 1.8 and […]) were included for analysis to avoid any artifacts. The samples were completely dried and re-dissolved in 200 μL of Milli-Q water (18.2 MΩ) for at least 20 min at 65 °C in a shaking thermo-mixer, mineralized and analyzed for total Pt content by GF-AAS as described above.

Structure (SMILES) | Log P (octanol/water) [1] | IC50 [2] | IC50 ([3]; MCF-7, 72 h) | IC50 ([4]; A431, 72 h) | IC50 ([5]; A375, 72 h) | IC50 [6] | IC50 [7] | IC50 [8] | RF (resistance factor) [8] | ROS production (in words) [9] | IC50 ([10]; MTT, ± S.D.) | IC50 [11] | DNA platination (in words) [13] | further results
N.N.O=C(Cc1c[nH]c2ccccc12)[O][Pt]([Cl])([Cl])[O]C(=O)Cc1c[nH]c2ccccc12 [Complex 2A] | −0.068 ± 0.07 | 3.32 ± 0.21 µM | 3.7 ± 0.29 µM | 13.3 ± 0.84 µM | 1850 ± 230 nM | 11 ± 2.14 µM | 25.2 ± 0.89 µM | 3.44 ± 0.59 µM | 0.3 | less effective compared to the positive control | 3.75 ± 1.31 µM |  |  | 
N.N.O=C(CCc1c[nH]c2ccccc12)[O][Pt]([Cl])([Cl])[O]C(=O)CCc1c[nH]c2ccccc12 [Complex 2P] | −0.051 ± 0.06 | 2.56 ± 0.65 µM | 5.54 ± 0.67 µM | 3 ± 0.35 µM | 1350 ± 750 nM | 8.37 ± 2.12 µM | 14 ± 1.56 µM | 2.91 ± 0.64 µM | 0.4 |  | 2.87 ± 1.59 µM | 4.9 µM |  | 
[NH2][Pt]([NH2])([Cl])([Cl])([O]C(=O)CCC(=O)O)[O]C(=O)CCc1c[nH]c2ccccc12 [Complex 4P] | −0.100 ± 0.05 | > 50 µM | 40.56 ± 0.08 µM | 29.2 ± 4.19 µM | 8660 ± 4030 nM | > 50 µM | 42 ± 1.92 µM | > 50 µM |  |  | 11.8 ± 1.06 µM | 30.4 µM | least effective | cellular platinum accumulation (in words) ([12]; A375, 1.5 and 3 μM, 6 and 24 h): lowest platinum accumulation; cellular uptake level, times lower than cisplatin ([12]; A375, GF-AAS): about 7
CC(=O)[O][Pt]([NH2])([NH2])([Cl])([Cl])[O]C(=O)CCc1c[nH]c2ccccc12 [Complex 5P] | −0.080 ± 0.04 | 19.5 ± 0.68 µM | 21.01 ± 0.06 µM | 5.35 ± 2.11 µM | 3150 ± 20 nM | 18 ± 1.33 µM | 14.03 ± 0.14 µM | 21.9 ± 2.48 µM | 1.2 |  | 3.62 ± 0.18 µM | 11.1 µM | least effective | 
O=C(O)Cc1c[nH]c2ccccc12 [IAA, indole-3-acetic acid, reference compound] |  |  |  |  |  |  |  |  |  | no effect on cellular basal ROS levels |  |  |  | IC50 ([2]; Homo sapiens, BXPC-3): > 50 µM; cytotoxic effect (in words) ([11]; free ligands): did not elicit any significant cytotoxic effect; IC50 ([3]; Homo sapiens, MCF7, MCF-7, 72 h): > 50 µM; IC50 ([4]; Homo sapiens, A-431, A431, 72 h): > 50 µM; IC50 ([5]; Homo sapiens, A-375, A375, 72 h): > 50000 nM; IC50 ([7]; Homo sapiens): > 50 µM; IC50 ([10]; Homo sapiens): > 50 µM
N.N.[Cl][Pt][Cl] [cisplatin] |  | 10.2 ± 1.65 µM | 7.6 ± 2.96 µM | 1.96 ± 0.84 µM | 2060 ± 1010 nM | 2.26 ± 1.06 µM | 15.5 ± 2.48 µM |  | 10.5 |  | 12.6 ± 0.81 µM | 8.33 µM |  | 

— PMC4941645, “Oxidative Stress Induced by Pt(IV) Pro-drugs Based on the Cisplatin Scaffold and Indole Carboxylic Acids in Axial Position” (Scientific Reports, 2016)
